Legend:
[1] = tested on: E. coli (BL21); assay: Kirby-Bauer test (disc diffusion); type: cell-based; conditions: 2 mm radius discs, LB petri dishes, 37 °C overnight
[2] = type: physicochemical; conditions: chemical stability; peptides diluted to 150 mM solution in double-distilled water, incubated at 37 °C for 24 h; ESI-MS spectra before and after incubation
Text: We hypothesized that peptides would penetrate into E. coli and bind to CusB, interfere with its physiological dimerization, and thereby induce non-physiological structural changes or inhibit physiological structural changes in the transporter in response to extended levels of Cu(I). Thus, E. coli will lose its ability to be protected by copper-mediated oxidative stress, resulting in the death of the bacteria. Unlike CusB, CueO has homologs in human cells (Superoxide dismutase, SOD), and the main role in this study is to affect the CusCFBA efflux system regardless to CueO function, all measurements were carried out with an active CueO. First, we verified whether all ten peptides were stable under physiological conditions via incubation at 37°C for 24 h by ESI-MS analysis (Figs B to D in S1 File). Peptides 2–10 were stable under these given conditions, whereas peptide 1 was unstable.
Validation of the peptides stability using ESI-MS
In order to confirm the stability of the peptides, them were diluted to 150 mM solution in double-distilled
water, then incubated at 37 °C for 24 hr.
S2 before the incubation (Figure S2A) and after the incubation (Figure S2B). All peptides besides pep1
Fig B: ESI-MS. ESI-MS spectra for pep1 and pep2, left panel presents the spectra after peptide
(1 picture or pasted object on this page, not shown here)

[3] = tested on: E. coli (BL21;DE3); assay: E. coli growth rate experiment (O.D. 600 nm) under copper stress; type: cell-based; conditions: M9 medium, 37 °C, value after 14 h incubation, 5 μM Cu(II) chloride in assay (sentence does not say with or without Cu(II)), mean ± SE, n = 5
Protocol: E. coli (BL21;DE3) growth rates were evaluated in 96-well microplates: in 200 μl of a poor medium comprising M9 medium. Incubation was for 16 h at 37°C with Copper(II) chloride (Sigma-Aldrich, St. Louis, MO, USA) at a concentration of 5 μM. Absorbance at 600 nm was measured every 30 min after stirring for 5 s in a 96-well plate reader (SPL Life Sciences, Gyeonggi, Korea). The buffer background was auto-subtracted. Each experiment was repeated five times under identical conditions.
Next, E. coli were grown in M9 medium for 16 h, and their growth rate was evaluated in the absence and presence of Cu(II) in the medium. In each sample, a different peptide was introduced to the medium, with the kanamycin as a positive control. […] Growth rate values for all peptides at various concentrations after 14 h of incubation are presented in Fig 3 (the growth rate curves are presented in Figs E to F in S1 File).
Fig 3 Effect of test peptides on the E. coli growth rate. E. coli cultures were grown as described in Methods. The growth rate values after a 14 h incubation in the medium in the presence (gray lines) and absence (black lines) of Cu(II). Concentrations of the test peptides: A. 50 μM, B. 75 μM, C. 100 μM, and D. 125 μM. *p < 0.05, MEAN ± SE, n = 5, a comparison between the values in the presence and absence of Cu(II). #p < 0.05, MEAN ± SE, n = 5, in the presence of Cu(II) and comparing between values of a buffer and peptide. t-test was used for the statistic evaluation.

[4] = tested on: E. coli (BL21;DE3); assay: E. coli viability assay (LIVE/DEAD fluorescence imaging); type: cell-based; conditions: peptide 125 μM; LIVE/DEAD staining, M9 medium, confocal imaging, cell counts with ImageJ; mean ± SE, n = 3
Protocol: E. coli (BL21;DE3) were dyed using the L7007 LIVE/DEAD Bacterial Viability kit (Molecular Probes, Eugene OR, USA); microbes were grown in M9 medium. Images were acquired on a Leica SP8 confocal microscope, running LASX acquisition software. The magnification consisted of a 63 X 1.4 NA objective. Microbes were counted using ImageJ software. Error calculations were based on three repetitions, with each experiment scanned at nine different tiles—all together, 27 repetitions.
Live/dead fluorescence cell imaging experiments were used to indicate bacterial viability when incubated with the peptides. This method also helped to determine whether the decrease in the growth rate described above resulted from deceleration in E. coli growth or its substantial death. E coli were grown to the late […] phase (according to the growth rate lines; Figs B to D in S1 File) in the presence of the peptides in poor medium (M9), which mostly resembles physiological conditions.[52–54] Glucose levels in the growth media were sufficient to prevent bacterial viability loss due to lack of nutrition, yet not too high to positively affect its viability. […] However, the effect of the peptides was not as substantial as the commercially available antibiotic kanamycin. […] 5 ± 4.3% and up to 45.3 ± 4.3% reduction at a concentration of 125 μM.
Fig 4 Effect of the test peptides on E. coli viability. […]

[5] = disc solution 50 µM in 0.85% NaCl
[6] = disc solution 75 µM in 0.85% NaCl
[7] = disc solution 100 µM in 0.85% NaCl
[8] = disc solution 125 µM in 0.85% NaCl

| Compound | r, radius of bacteria killing formed over petri dishes by peptide-solution discs [1, 5] [mm] | r, radius of bacteria killing formed over petri dishes by peptide-solution discs [1, 6] [mm] | r, radius of bacteria killing formed over petri dishes by peptide-solution discs [1, 7] [mm] | r, radius of bacteria killing formed over petri dishes by peptide-solution discs [1, 8] [mm] | stability under physiological conditions (ESI-MS) [2] | decrease in O.D. (600 nm) ([3]; peptide 50 μM) [%] | decrease in O.D. (600 nm) ([3]; peptide 100 μM) [%] | reduction of bacterial viability [4] [%] |
| --- | --- | --- | --- | --- | --- | --- | --- | --- |
| NC[C@H]1O[C@H](O[C@H]2[C@H](O)[C@@H](O[C@H]3O[C@H](CO)[C@@H](O)[C@H](N)[C@H]3O)[C@H](N)C[C@@H]2N)[C@H](O)[C@@H](O)[C@@H]1O [Kanamycin, kanamycin, reference compound] | 2.5 | 2.5 | 2.5 | 2.5 | – | – | – | – |
| AKIQGM [pep3] | 0 | 0 | 0 | 0 | – | – | – | – |
| KIQGMDPVWVT [pep2] | 0 | 0 | 0 | 0 | – | – | – | – |
| VWVTA [pep7] | 0 | 0 | 0 | 0 | – | – | – | – |
| DPVWVTA [pep4] | 0 | 0 | 0 | 0 | – | – | – | – |
| PVWV [pep10] | 0 | 0 | 0.5 | 1.5 | – | – | – | – |
| MDPV [pep9] | 0 | 0.5 | 0.5 | 1.5 | – | – | – | – |
| GMDPVW [pep6] | 0 | 0 | 0 | 0 | – | – | – | – |
| AKIQGMDPVWVTA [pep1, 13-amino acid parent peptide […] mimicking CusB residues 236-248] | – | – | – | – | unstable | – | – | – |
| IQGMD [pep5] | 0 | 0.5 | 1 | 2 | – | 54.5 ± 4.2 | 77.2 ± 6.4 | 45.3 ± 4.3 |

From article PMC6936879, “Inhibiting the copper efflux system in microbes as a novel approach for developing antibiotics” (PLoS ONE, 2019)
